Patent US20020049249A1, “PPAR receptor activator compounds for treating cutaneous disorders/afflictions” (priority 1999, published 2002)

Tests used:
Format in all cases: cell-based
PPAR-α = target: T1, PPAR-α (Homo sapiens, UniProt Q07869); assay: PPAR-α transactivation test (luciferase reporter, cotransfected HeLa cells); design: concentration or dose not given beside the values; details: HeLa cells cotransfected with receptor vector and PPRE-luciferase reporter, 24 hours; relative to Reference 1
T1 construct: expressed in transfected cells; host or cells: HeLa cells
T1 sequence (Q07869 1-468): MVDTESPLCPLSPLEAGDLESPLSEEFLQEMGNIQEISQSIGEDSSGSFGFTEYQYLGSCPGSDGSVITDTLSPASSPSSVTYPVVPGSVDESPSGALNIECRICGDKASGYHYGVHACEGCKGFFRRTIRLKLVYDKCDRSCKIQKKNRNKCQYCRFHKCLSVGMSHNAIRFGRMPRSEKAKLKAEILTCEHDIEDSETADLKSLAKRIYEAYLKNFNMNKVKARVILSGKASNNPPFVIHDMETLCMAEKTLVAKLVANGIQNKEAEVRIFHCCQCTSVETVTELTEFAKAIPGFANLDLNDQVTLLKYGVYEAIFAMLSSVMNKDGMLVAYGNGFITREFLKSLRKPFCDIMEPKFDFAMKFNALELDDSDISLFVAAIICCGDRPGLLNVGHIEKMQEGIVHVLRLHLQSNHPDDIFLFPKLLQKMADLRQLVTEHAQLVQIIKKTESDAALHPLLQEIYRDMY
Procedure: (§1) This activity is determined employing an enzyme (luciferase) which is a reporter of the activation due to the compound via one of the PPAR receptors.
(§2) The biological tests carried out correspond to those described above. […] Thus, the activating power via PPAR-α, PPAR-γ or PPAR-δ of molecules can be evaluated with a transactivation test in which HeLa cells were cotransfected with an expression vector encoding these receptors and a reporter plasmid comprising a PPRE response element cloned upstream of a portion of a promoter of the SV40 virus and of the luciferase gene. The cotransfected cells were treated for 24 hours with the molecules to be tested and the activity of the luciferase was determined by luminescence.

PPAR-γ = target: T2, PPAR-γ (Homo sapiens, UniProt P37231); assay: PPAR-γ transactivation test (luciferase reporter, cotransfected HeLa cells); design: concentration or dose not given beside the values; details: HeLa cells cotransfected with receptor vector and PPRE-luciferase reporter, 24 hours; relative to Reference 2
T2 construct: expressed in transfected cells; host or cells: HeLa cells
T2 sequence (P37231 1-505): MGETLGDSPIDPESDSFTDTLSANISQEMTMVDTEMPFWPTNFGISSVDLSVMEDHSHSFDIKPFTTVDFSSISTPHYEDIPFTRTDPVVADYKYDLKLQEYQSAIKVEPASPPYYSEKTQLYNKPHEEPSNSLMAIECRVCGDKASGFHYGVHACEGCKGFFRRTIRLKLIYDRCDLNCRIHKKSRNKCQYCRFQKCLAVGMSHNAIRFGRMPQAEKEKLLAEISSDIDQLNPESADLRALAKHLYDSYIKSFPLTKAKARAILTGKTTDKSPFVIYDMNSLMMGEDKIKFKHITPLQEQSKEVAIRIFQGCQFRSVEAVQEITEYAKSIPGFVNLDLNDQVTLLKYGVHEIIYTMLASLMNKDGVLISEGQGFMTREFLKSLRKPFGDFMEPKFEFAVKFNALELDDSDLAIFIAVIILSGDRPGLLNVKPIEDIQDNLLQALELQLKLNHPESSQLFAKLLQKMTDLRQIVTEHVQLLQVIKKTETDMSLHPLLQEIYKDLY
Procedure: as §1, §2

PPAR-β = target: T3, PPAR-β (Homo sapiens, UniProt Q03181); assay: PPAR-β transactivation test (luciferase reporter, cotransfected HeLa cells); design: % of activation, β: concentration or dose not given beside the values; details: 24 hours; for % of activation, β: HeLa cells cotransfected with receptor vector and PPRE-luciferase reporter, relative to Reference 2; for AC50: HeLa cells cotransfected, concentration giving 50% of the activity of the reference molecule
T3 construct: expressed in transfected cells; host or cells: HeLa cells
T3 sequence (Q03181 1-441): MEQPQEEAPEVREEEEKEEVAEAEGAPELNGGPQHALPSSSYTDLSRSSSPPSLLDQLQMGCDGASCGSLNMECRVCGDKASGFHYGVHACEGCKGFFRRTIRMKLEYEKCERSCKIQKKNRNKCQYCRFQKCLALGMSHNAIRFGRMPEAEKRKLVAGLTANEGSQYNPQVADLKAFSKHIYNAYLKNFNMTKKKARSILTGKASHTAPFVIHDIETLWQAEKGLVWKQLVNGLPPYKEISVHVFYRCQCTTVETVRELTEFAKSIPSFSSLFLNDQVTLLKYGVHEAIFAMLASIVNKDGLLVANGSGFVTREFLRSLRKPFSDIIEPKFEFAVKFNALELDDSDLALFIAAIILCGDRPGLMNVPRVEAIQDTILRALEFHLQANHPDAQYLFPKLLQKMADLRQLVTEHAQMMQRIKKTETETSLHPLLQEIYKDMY
Procedure: as §1, §2

% of activation, α (PPAR-α) [%] | % of activation, γ (PPAR-γ) [%] | % of activation, β (PPAR-β) [%] | AC50 (PPAR-β) [nM] | SMILES
7 | 4 | 0 |  | CC(=O)NC(=Cc1ccc(Oc2ccc3c(c2)C(C)(C)CCC3(C)C)cc1)C(=O)O [Comparative Example 2, 2-acetylamino-3-[4-(5,5,8,8-tetramethyl-5,6,7,8-tetrahydronaphth-2-yloxy)phenyl]-acrylic acid, reference compound]
100 |  |  |  | Cc1cccc(Nc2cc(Cl)nc(SCC(=O)O)n2)c1C [Reference 1, [4-chloro-6-(2,3-dimethyl-phenylamino)pyrimidin-2-ylsulfanyl]acetic acid, reference compound]
24 | 40 | 172 | 200 | CC1(C)CCC(C)(C)c2cc(Sc3ccc4cc(C(=O)O)ccc4c3)ccc21 [Compound 3, 6-(5,5,8,8-tetramethyl-5,6,7,8-tetrahydronaphth-2-ylsulfanyl)naphthalene-2-carboxylic acid]
18 | 23 | 152 | 700 | CC1(C)CCC(C)(C)c2cc(Oc3ccc4cc(C(=O)O)ccc4c3)ccc21 [Compound 1, 6-(5,5,8,8-tetramethyl-5,6,7,8-tetrahydronaphth-2-yloxy)naphthalene-2-carboxylic acid]
12 | 0 | 56 |  | CC(=CC(=O)O)c1ccc(Oc2ccc3c(c2)C(C)(C)CCC3(C)C)cc1 [Compound 4, 3-[4-(5,5,8,8-tetramethyl-5,6,7,8-tetrahydronaphth-2-yloxy)phenyl]but-2-enoic acid]
12 | 18 | 204 | 900 | CC1(C)CCC(C)(C)c2cc(Oc3ccc(C=CC(=O)O)cc3)ccc21 [Compound 2, 3-[4-(5,5,8,8-tetramethyl-5,6,7,8-tetrahydronaphth-2-yloxy)phenyl]acrylic acid]
25 | 69 | 328 | 7000 | CC1(C)CCC(C)(C)c2cc(Nc3ccc4cc(C(=O)O)ccc4c3)ccc21 [Compound 5, 6-(5,5,8,8-tetramethyl-5,6,7,8-tetrahydronaphth-2-ylamino)naphthalene-2-carboxylic acid]
5 | 0 | 7 |  | CC1=NC(=Cc2ccc(Oc3ccc4c(c3)C(C)(C)CCC4(C)C)cc2)C(=O)O1 [Comparative Example 1, 2-methyl-4-[4-(5,5,8,8,-tetramethyl-5,6,7,8-tetrahydronaphth-2-yloxy)benzylidine]-4H-oxazol-5-one, reference compound]
